From ChEMBL document CHEMBL6134827, “The discovery of novel antimicrobial peptides against drug-resistant bacteria based on fragments fusion strategy” (Eur J Med Chem, 2025) come the findings set out here.

Structures are written as SMILES. The source made the active and inactive calls. The calls are words filed in the database; no cut-off is given here. Non-standard residues stand in square brackets, D forms with d. Residues, ends and D or L forms follow the SMILES beside them. Dab = NCC[C@H](N)C(=O)O Bounds are passed on as bounds.

Data set [1] can be described thus: Toxicity in female C57BL/6 mouse assessed as effect on body weight at 5 to 20 mg/kg, ip administered daily and measured for 5 days. It counts as organism-based. Conditions: in vivo, 120 h, dose 5-20 mg/kg, time 5 day.
A further data set has as its system Escherichia coli. The data set is described as follows: Antimicrobial activity against Escherichia coli ATCC 25922 assessed as inhibition of visible microbial growth incubated for 18 hrs by broth microdilution method. Format: functional. In general terms: Dilution methods test growth across graded concentrations, often in twofold steps.
The subject of data set [2] is Pseudomonas aeruginosa. The data set is described as follows: Antimicrobial activity against multidrug resistant Pseudomonas aeruginosa assessed as inhibition of visible microbial growth incubated for 18 hrs by broth microdilution method. It counts as functional.
A short description of data set [3]: Cytotoxicity against HEK293T cells assessed as survival rate at 64 microg/ml measured after 24 hrs by CCK-8 assay relative to control. It counts as toxicity, cell-based, HEK-293T. Conditions: human, at 64 µg/mL, read-out: Survival. On the technique in general: Formazan colour is commonly taken as a measure of viable cells.
A further data set relates to Acinetobacter baumannii. The data set is described as follows: Antimicrobial activity against multidrug resistant Acinetobacter baumannii assessed as inhibition of visible microbial growth incubated for 18 hrs by broth microdilution method. Format: functional.
For data set [4], the system named is Pseudomonas aeruginosa. The data set is described as follows: Drug resistance, ratio of MIC for multidrug resistant Pseudomonas aeruginosa after 16 passages to MIC for multidrug resistant Pseudomonas aeruginosa after first exposure. Format: functional.
The subject of data set [5] is Pseudomonas aeruginosa. The data set is described as follows: Antimicrobial activity against multidrug resistant Pseudomonas aeruginosa assessed as inhibition of bacterial growth at >=125 microg/ml in presence of lipoteichoic acid by checkerboard microdilution assay. Format: functional, organism-based. Conditions: dose >= 125.0 µg/ml.
Data set [6] concerns Cell membrane. The data set is described as follows: Disruption of cell membrane in multidrug resistant Staphylococcus aureus assessed as increase in red fluorescence at 16 microg/mL incubated after 2 hrs by SYTO9/PI double staining based fluorescence confocal microscopic analysis. It counts as subcellular. Conditions: dose 16.0 µg/ml.
Data set [7] in a line: Hemolytic activity in human red blood cell assessed as hemolysis at 128 microg/ml measured after 1 hrs by microplate reader assay relative to control. It counts as toxicity, cell-based, Erythrocyte. Conditions: red blood cells, at 128 µg/mL, read-out: Activity.
The test system of a further data set is Staphylococcus aureus. The data set is described as follows: Antimicrobial activity against multidrug resistant Staphylococcus aureus assessed as inhibition of visible microbial growth incubated for 18 hrs by broth microdilution method. Format: functional.
A short description of data set [8]: Toxicity in female C57BL/6 mouse assessed as histopathological change in lung at 20 mg/kg, ip administered daily and measured for 5 days by H and E staining based analysis. It counts as organism-based. The settings on record: in vivo, 120 h, time 5 day.
The nature of data set [9]: Toxicity in female C57BL/6 mouse assessed as histopathological change in spleen at 20 mg/kg, ip administered daily and measured for 5 days by H and E staining based analysis. It counts as organism-based. Conditions: in vivo, 120 h, time 5 day.
Data set [10] has as its system Cell membrane. The data set is described as follows: Induction of outer cell membrane permeabilization in multidrug resistant Pseudomonas aeruginosa assessed as increase in fluorescence intensity measured for 12 mins by NPN uptake assay. Conditions: dose 4-32 µg/ml. Format: subcellular.
Data set [11] can be described thus: Cytotoxicity against human LO2 cells assessed as survival rate at 64 microg/ml measured after 24 hrs by CCK-8 assay relative to control. The settings on record: at 64 µg/mL, read-out: Survival. Format: toxicity, cell-based, L02.
The test system of data set [12] is Pseudomonas aeruginosa. The data set is described as follows: In vivo antibacterial activity against multidrug resistant Pseudomonas aeruginosa infected in acute peritonitis C57BL/6 mouse model assessed as reduction in bacterial load in liver at 10 to 20 mg/kg, ip measured after 12 hrs. It counts as functional, organism-based. The settings on record: dose 10-20 mg/kg.

Data set [13] relates to Pseudomonas aeruginosa. The data set is described as follows: Antibacterial activity against multidrug resistant Pseudomonas aeruginosa assessed as reduction in bacterial growth at 32 microg/mL measured after 1.5 hrs by bactericidal kinetic assay relative to control. It counts as functional. Details: scale not given: the % may be the effect or the level left. The settings on record: dose 32 µg/ml.

In the case of `CC(C)C[C@H](NC(=O)CN)C(=O)N[C@@H](CCCNC(=N)N)C(=O)N[C@@H](CCN)C(=O)N[C@@H](Cc1c[nH]c2ccccc12)C(=O)N[C@@H](CC(C)C)C(=O)N[C@@H](CCCNC(=N)N)C(=O)N[C@@H](CCN)C(=O)N[C@@H](Cc1ccccc1)C(=O)N[C@@H](CCN)C(=O)N[C@@H](CCN)C(=O)N[C@@H](Cc1ccccc1)C(=O)N[C@@H](Cc1c[nH]c2ccccc12)C(=O)O` (H-GLR[Dab]WLR[Dab]F[Dab][Dab]FW-OH), the Activity result is listed as “Non-toxic” in data set [1]; “Active; Modest Inhibition Observed” with Pseudomonas aeruginosa [5]; “Non-toxic” in data set [8]; “Non-toxic” in [9]; 100% in the data set on Pseudomonas aeruginosa [13]. Further, the minimum inhibitory concentration (MIC) in the data set with Escherichia coli, in the data set with Pseudomonas aeruginosa [2], in the data set on Acinetobacter baumannii and with Staphylococcus aureus was 4.8 µM in each case. The viability at 24 h, 64 µg/mL in [3] and in [11] was more than 80% in each case. Moreover, the Ratio in the data set on Pseudomonas aeruginosa [4] was less than 2. Besides, the result in the data set with Cell membrane [6], with Cell membrane [10] and with Pseudomonas aeruginosa [12] was Active. The hemolysis at 1 h, 128 µg/mL in [7] was less than 10%.
